Assay results published in patent publication US20200108074A1, “COMBINATIONS OF CHK1- AND WEE1- INHIBITORS” (Seattle Genetics, Inc., priority 2017, published 2020).
“Also recorded” adds a separate entry of the source.

Legend:
Jeko-1 cells [1] = experiment: Jeko-1 MCL tumor xenograft model, combination with Wee1 inhibitor; type: in vivo; details: Compound 1 7.5 mg/kg, AZD-1775 15 mg/kg, or both
Procedure: A Jeko-1 mantle cell lymphoma (MCL) tumor xenograft model was used to study the combined effects of Chk1 inhibition with Compound 1 and a Wee1 inhibitor. Jeko-1 cells were inoculated subcutaneously into the flanks of CB17.SCID mice. Once tumors reached a volume of about 200 mm^3, mice were randomized into study groups (n=10 per group). […] A negative control group was included wherein the mice were treated with vehicle only.

hERG = hERG (Homo sapiens, UniProt Q12809); experiment: hERG inhibition
Sequence of hERG (Q12809 whole entry): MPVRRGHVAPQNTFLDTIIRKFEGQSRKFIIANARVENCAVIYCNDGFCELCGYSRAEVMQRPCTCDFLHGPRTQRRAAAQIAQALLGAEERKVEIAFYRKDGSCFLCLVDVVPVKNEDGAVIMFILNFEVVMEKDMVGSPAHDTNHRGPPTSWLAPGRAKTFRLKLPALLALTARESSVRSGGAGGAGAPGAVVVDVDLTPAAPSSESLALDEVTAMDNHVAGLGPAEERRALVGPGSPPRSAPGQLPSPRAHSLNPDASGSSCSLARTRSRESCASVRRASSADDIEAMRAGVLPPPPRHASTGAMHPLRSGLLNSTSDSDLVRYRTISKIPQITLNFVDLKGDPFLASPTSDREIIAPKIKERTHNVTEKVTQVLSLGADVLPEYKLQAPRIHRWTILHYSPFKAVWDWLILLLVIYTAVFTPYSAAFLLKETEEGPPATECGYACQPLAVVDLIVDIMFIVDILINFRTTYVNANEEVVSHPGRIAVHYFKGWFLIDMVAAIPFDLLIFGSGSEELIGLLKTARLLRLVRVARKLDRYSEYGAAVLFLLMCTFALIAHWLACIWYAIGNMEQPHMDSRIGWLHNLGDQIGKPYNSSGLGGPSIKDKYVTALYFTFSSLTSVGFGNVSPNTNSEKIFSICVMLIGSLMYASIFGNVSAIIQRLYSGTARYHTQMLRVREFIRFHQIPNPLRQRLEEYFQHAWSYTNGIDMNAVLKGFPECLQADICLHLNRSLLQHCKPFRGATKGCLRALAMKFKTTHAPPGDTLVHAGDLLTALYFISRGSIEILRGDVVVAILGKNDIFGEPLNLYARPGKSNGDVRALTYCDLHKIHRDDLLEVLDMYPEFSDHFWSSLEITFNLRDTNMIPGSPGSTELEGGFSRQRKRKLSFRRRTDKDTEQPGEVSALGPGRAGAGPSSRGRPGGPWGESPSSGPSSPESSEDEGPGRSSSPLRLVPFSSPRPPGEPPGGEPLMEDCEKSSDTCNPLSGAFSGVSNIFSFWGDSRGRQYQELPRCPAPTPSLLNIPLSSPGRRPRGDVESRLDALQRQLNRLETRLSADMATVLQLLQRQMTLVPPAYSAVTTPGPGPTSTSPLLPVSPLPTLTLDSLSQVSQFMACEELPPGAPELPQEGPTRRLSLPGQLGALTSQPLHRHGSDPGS

Chk1 [2] = target: T1, Chk1 (Homo sapiens, UniProt O14757); experiment: Cellular Chk1 assay, serine 296 phospho-epitope immunoblot in HT-29 cells; type: cell-based; details: HT-29 colon carcinoma cells, 18-hour assay, anti-Chk1 serine 296 phospho-epitope antibody
T1 sequence (O14757 1-476): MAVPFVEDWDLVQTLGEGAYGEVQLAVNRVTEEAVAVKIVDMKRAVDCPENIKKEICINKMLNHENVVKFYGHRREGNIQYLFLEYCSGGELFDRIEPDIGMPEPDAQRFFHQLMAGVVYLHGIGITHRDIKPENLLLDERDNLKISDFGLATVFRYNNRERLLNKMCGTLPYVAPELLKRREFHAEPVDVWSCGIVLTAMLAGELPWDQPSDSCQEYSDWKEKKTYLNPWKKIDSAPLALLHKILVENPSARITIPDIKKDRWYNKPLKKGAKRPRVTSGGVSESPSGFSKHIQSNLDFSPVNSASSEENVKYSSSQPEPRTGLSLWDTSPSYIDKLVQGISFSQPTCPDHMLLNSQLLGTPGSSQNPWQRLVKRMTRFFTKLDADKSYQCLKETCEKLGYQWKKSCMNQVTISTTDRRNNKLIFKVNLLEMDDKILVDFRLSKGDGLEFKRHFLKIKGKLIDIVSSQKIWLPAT
Procedure: Cellular Chk1 was assayed using HT-29 colon carcinoma cells in an 18-hour assay by immunoblotting with a rabbit anti-Chk1 serine 296 phosphor-epitope antibody (obtained from Cell Signaling Technology Inc.).

NCI-H727 tumor cells = experiment: NCI-H727 NSCLC tumor xenograft model, single agent; type: in vivo; details: treated mice
Procedure: (§1) In order to assess the in vivo efficacy of Compound 1, two different NSCLC xenograft models were used. SK-MES-1 or NCI-H727 tumor cells were inoculated subcutaneously in the flanks of athymic nude mice. Once tumors reached a volume of about 200 mm^3, mice were randomized into study groups (n=10 per group). Mice were treated by oral gavage with Compound 1 at a dose of 12.5, 25, or 50 mg/kg once per day. A negative control group was also included, wherein the animals were administered vehicle only.

[3] = GLP cardiovascular safety study; type: in vivo; details: QTc interval, left ventricular pressure, contractility end points
Source text: 7-day repeat dose tolerability studies have been completed in mice, rats, and cynomolgus monkeys, and there have been no findings in a cynomolgus monkey GLP cardiovascular safety study (including corrected QT (QTc) interval, left ventricular pressure (LVP), and contractility end points). Compound 1 is active as a single agent, but is also active in combination with chemotherapeutic agents and Wee1 inhibitors.

Maver-1 cells = experiment: Maver-1 MCL xenograft model, single agent; details: mouse, in vivo
Procedure: (§2) The effects of Compound 1 were assessed in two different mantle cell lymphoma (MCL) xenograft models. Jeko-1 and or Maver-1 cells were inoculated subcutaneously in the flanks of CB17.SCID (for Jeko-1 cells) or athymic nude (for Maver-1 cells) mice. Once the tumors reached a volume of about 200 mm^3, the mice were randomized into study groups (n=10 per group). Mice were treated with Compound 1 by oral gavage, or with only vehicle as a negative control. In one treatment group, Compound 1 was administered once per day for 21 days. In the other treatment group, Compound 1 was administered twice per day for three cycles, wherein each cycle constituted treatment for three consecutive days, followed by no treatment for four consecutive days.

Chk1 [4] = target: T1, Chk1; experiment: Chk1 enzymatic assay; type: biochemical; details: 10 μM [γ-33P]-ATP, 20 μM peptide substrate (SEQ ID NO:1); read-out: IC50, enzymatic potency against Chk1
MV-411 cells = experiment: MV-411 AML tumor xenograft model; type: in vivo; details: single agent
Source text: An MV-411 tumor xenograft model was used to test the ability of Compound 1 to inhibit AML tumor growth in vivo. MV-411 cells were mixed with Matrigel in a 1:1 ratio and injected subcutaneously into the right flanks of female NOD.SCID mice. Once tumors reached a volume of about 100 to 200 mm^3, mice were randomized into study groups (n=10 per group) and dosed with Compound 1 by oral gavage.

Chk2 = Chk2 (Homo sapiens, UniProt O96017); experiment: Kinase panel selectivity, IC50 relative to Chk1; type: biochemical
Sequence of Chk2 (O96017 whole entry, species assumed): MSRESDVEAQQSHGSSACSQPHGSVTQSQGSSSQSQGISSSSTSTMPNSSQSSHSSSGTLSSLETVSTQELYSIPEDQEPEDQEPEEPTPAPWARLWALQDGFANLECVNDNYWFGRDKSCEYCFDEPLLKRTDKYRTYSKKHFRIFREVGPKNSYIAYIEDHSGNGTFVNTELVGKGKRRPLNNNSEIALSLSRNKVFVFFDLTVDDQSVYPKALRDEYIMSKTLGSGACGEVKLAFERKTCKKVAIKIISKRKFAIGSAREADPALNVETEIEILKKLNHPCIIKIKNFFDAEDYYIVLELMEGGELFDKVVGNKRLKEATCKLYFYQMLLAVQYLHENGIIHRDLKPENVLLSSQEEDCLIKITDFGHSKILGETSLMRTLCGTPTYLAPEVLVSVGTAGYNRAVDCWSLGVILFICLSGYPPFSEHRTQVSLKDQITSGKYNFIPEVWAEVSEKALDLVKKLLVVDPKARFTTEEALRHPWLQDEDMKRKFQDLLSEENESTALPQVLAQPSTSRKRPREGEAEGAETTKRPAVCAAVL
Procedure: Compound 1 was screened against a panel of 120 kinases, including those represented in FIG. 3A, using a 1 μM ATP concentration. The IC50 values, measured at the ATP Km for each kinase, are represented relative to Chk1 in FIG. 3B. Cellular IC50 values were derived from signal transduction assays in relevant cell lines using phosphor-epitope-specific antibodies.

SK-MES-1 tumor cells = experiment: SK-MES-1 NSCLC tumor xenograft model; type: in vivo; details: treated mice
Procedure: as §1

[5] = test system: solid and hematological tumor-derived cell lines; experiment: Large cell line panel proliferation screens (CellTiter-Glo); type: cell-based; details: in vitro; lower end printed in nM, upper end in μM; read-out: IC50 values, single agent, large cell line panels
Procedure: A panel of 232 carcinoma derived cell lines was screened in a high-throughput proliferation assay using dilutions of Compound 1 or cisplatin. Cell lines were treated with serial half-log dilutions of Compound 1 or cisplatin using a starting concentration of 30 μM to achieve 9 dose levels and assayed 72 hours later for proliferation using a CellTiter-Glo® Assay (Promega). IC50 (EC50) values were calculated by fitting the dose-response data using a nonlinear regression model.
A panel of about 70 hematopoietic cell lines was screened for sensitivity to Compound 1 in a 72-hour proliferation assay (CrownBio Omnipanel). Cell lines that were screened included those representing anaplastic large cell lymphoma (ALCL), acute myeloid leukemia (AML), B-cell acute lymphoblastic leukemia (B-ALL), Burkitt lymphoma, chronic lymphocytic leukemia (CLL), chronic myelogenous leukemia (CML), mantle cell lymphoma (MCL), multiple myeloma (MM), acute promyelocytic leukemia (PML), and T-cell acute lymphoblastic leukemia (T-ALL).

CYP = CYP inhibition; type: in vitro ADME
Metabolic stability = type: in vitro ADME
Jeko-1 cells [6] = experiment: Jeko-1 MCL xenograft model, single agent; details: mouse, in vivo
Procedure: as §2

Efflux ratio = type: in vitro ADME

C=CCn1c(=O)c2cnc(Nc3ccc(N4CCN(C)CC4)cc3)nc2n1-c1cccc(C(C)(C)O)n1 [AZD-1775, 2-allyl-1-(6-(2-hydroxypropan-2-yl)pyridin-2-yl)-6-((4-(4-methylpiperazin-1-yl)phenyl)amino)-1H-pyrazolo[3,4-d]pyrimidin-3(2H)-one, reference compound]
tumor growth (Jeko-1 cells [1]; oral gavage once per day, three cycles of 3 days on/4 days off): inhibited by both agents alone

COc1cc(C2(F)CCN(C)CC2)ccc1-c1cc(Nc2cnc(C#N)cn2)n[nH]1 [Compound 1, 5-((5-(4-(4-fluoro-1-methylpiperidin-4-yl)-2-methoxyphenyl)-1H-pyrazol-3-yl)amino)pyrazine-2-carbonitrile]
hERG inhibition index (hERG): excellent | IC50 (Chk1 [2]): 0.511 nM | effect on body weight (NCI-H727 tumor cells): minimal effects on body weight | cardiovascular safety findings [3]: low risk of cardiotoxicity; also recorded: no findings | tolerability (body weight) (Maver-1 cells): well-tolerated | IC50 (Chk1 [4]): 0.124 nM | tolerability (body weight) (MV-411 cells): well-tolerated | selectivity for Chk1 over Chk2 (Chk2): more than 1,000 × | tolerability (body weight) (Jeko-1 cells [1]): well-tolerated | effect on body weight (SK-MES-1 tumor cells): minimal effects on body weight | IC50 [5]: ≥ 30 nM | CYP inhibition (CYP): no CYP inhibition liabilities | metabolic stability (Metabolic stability): good | tolerability (body weight) (Jeko-1 cells [6]): well-tolerated | efflux ratio (Efflux ratio): low
